{
  "source": "ChEMBL document CHEMBL3603747",
  "about": "“Discovery, design, and synthesis of indole-based EZH2 inhibitors” (Bioorg Med Chem Lett, 2015)",
  "type_in_all_cases": "ADME, organism-based",
  "key": {"[1]": {"test": "Volume of distribution at steady state in CB17 SCID mouse at 1 mg/kg, iv by LC-MS method", "conditions": "in vivo, read-out: Vdss"}, "[2]": {"test": "AUC in CB17 SCID mouse at 1 mg/kg, iv by LC-MS method", "conditions": "in vivo"}, "[3]": {"test": "Cmax in CB17 SCID mouse at 200 mg/kg, sc by LC-MS method", "parameters": "dose 200 mg/kg, route subcutaneous", "conditions": "in vivo"}, "[4]": {"test": "AUC in CB17 SCID mouse at 200 mg/kg, sc by LC-MS method", "conditions": "in vivo"}},
  "data": [
    {"smiles": "CCS(=O)(=O)N1CCC([C@@H](C)n2c(C)c(C(=O)NCc3c(OC)cc(C)[nH]c3=O)c3ccccc32)CC1", "values": [
      {"measurement": "Vd", "setting": "[1]", "value": 0.795, "unit": "L/kg"},
      {"measurement": "AUC", "setting": "[2]", "value": 362, "unit": "ng·h/mL"},
      {"measurement": "Cmax", "setting": "[3]", "value": 9150, "unit": "ng/mL"},
      {"measurement": "AUC", "setting": "[4]", "value": 51000, "unit": "ng·h/mL"}
    ]}
  ]
}
